Assay results published in ChEMBL document CHEMBL4400524, “Optimizing TRPM4 inhibitors in the MHFP6 chemical space” (Eur J Med Chem, 2019).
The source made the active and inactive calls. No cut-off for these calls is given here.

Columns and labels:
Type in all cases: cell-based
[1] = target: T1, Transient receptor potential cation channel subfamily M member 4 (Homo sapiens, UniProt Q8TD43); assay: Inhibition of Flag-tagged TRPM4 (unknown origin) expressed in HEK293 cells assessed as reduction in intracellular Na+ influx up to 100 uM after 45 mins by ANG2 dye-based fluorescence assay
T1 sequence (Q8TD43 whole entry): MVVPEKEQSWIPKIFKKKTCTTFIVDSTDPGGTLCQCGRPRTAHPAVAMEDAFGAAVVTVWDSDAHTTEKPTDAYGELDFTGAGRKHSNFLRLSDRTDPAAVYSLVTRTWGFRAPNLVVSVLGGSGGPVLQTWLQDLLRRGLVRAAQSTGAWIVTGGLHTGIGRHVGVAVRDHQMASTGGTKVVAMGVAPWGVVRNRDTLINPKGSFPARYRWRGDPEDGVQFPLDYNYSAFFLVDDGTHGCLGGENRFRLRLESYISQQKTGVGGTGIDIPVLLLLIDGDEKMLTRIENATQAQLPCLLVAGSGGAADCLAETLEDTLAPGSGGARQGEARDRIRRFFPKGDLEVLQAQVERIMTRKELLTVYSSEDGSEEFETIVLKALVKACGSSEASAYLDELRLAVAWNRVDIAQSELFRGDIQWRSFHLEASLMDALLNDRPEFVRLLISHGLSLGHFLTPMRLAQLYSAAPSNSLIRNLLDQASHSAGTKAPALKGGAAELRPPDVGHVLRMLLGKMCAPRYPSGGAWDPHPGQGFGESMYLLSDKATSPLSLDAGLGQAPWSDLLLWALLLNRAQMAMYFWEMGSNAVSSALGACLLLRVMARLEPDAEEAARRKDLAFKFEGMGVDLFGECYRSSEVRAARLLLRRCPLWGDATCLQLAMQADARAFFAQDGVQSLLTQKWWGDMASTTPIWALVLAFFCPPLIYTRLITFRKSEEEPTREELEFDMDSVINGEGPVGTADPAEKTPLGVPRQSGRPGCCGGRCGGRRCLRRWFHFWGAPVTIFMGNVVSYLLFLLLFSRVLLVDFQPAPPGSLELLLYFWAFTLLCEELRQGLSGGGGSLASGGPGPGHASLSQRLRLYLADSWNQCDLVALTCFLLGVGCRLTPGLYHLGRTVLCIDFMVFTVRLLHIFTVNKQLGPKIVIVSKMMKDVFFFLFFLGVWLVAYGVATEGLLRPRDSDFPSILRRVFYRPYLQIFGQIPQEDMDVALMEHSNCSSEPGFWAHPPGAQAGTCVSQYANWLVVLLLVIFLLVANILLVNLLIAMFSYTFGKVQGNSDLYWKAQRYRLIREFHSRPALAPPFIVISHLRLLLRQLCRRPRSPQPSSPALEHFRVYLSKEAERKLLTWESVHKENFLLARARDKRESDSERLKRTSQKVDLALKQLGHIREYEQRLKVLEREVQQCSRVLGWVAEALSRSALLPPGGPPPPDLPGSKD

[2] = target: T1, Transient receptor potential cation channel subfamily M member 4; assay: Inhibition of Flag-tagged TRPM4 (unknown origin) expressed in HEK293 cells assessed as reduction in intracellular Na+ influx after 45 mins by ANG2 dye-based fluorescence assay
[3] = target: T1, Transient receptor potential cation channel subfamily M member 4; assay: Inhibition of Flag-tagged TRPM4 (unknown origin) expressed in HEK293 cells assessed as reduction in intracellular Na+ influx at 10 uM after 45 mins by ANG2 dye-based fluorescence assay relative to control

SMILES: Cc1noc(C)c1-c1ccc(C(=O)O)c(NC(=O)COc2ccccc2Cl)c1
- inhibition [1]: inactive

SMILES: O=C(COc1ccccc1Cl)Nc1cc(Cl)ccc1C(=O)NS(=O)(=O)C1CC1
- IC50 [2]: 2.8 µM

SMILES: O=C(COc1ccccc1Cl)Nc1cc(-c2ncco2)ccc1C(=O)O
- IC50 [2]: 4.9 µM

SMILES: Cc1cccc(NC(=O)COc2ccccc2Cl)c1C(=O)O
- IC50 [2]: 1.3 µM

SMILES: O=C(COc1ccccc1Cl)Nc1cc(-c2nccs2)ccc1C(=O)O
- IC50 [2]: 4.7 µM

SMILES: O=C(COc1ccccc1Cl)Nc1cc(Cl)c(Cl)cc1C(=O)O
- inhibition [3]: 30%

SMILES: O=C(COc1ccccc1Cl)Nc1cc(-c2ccsc2)ccc1C(=O)O
- IC50 [2]: 5.9 µM

SMILES: Cc1cc(Cl)ccc1OC(C)C(=O)Nc1cc(Cl)ccc1C(=O)O (centres undefined)
- IC50 ([2]; hek293): 1.6 µM

SMILES: N#Cc1ccc(C(=O)O)c(NC(=O)COc2ccccc2Cl)c1
- IC50 [2]: 3.6 µM
